Data reported in patent publication US20040170591A1, “Dermatological composition comprising nicotinic acid or an amide, and a sphingoid base” (priority 2001, published 2004).

System: inflammatory acne of the face
Test: Clinical trial in patients with inflammatory acne of the face
Assay type: in vivo, human patients
Settings: 10 patients 14 to 23 years old; benzoyl peroxide 4 cases, erythromycin 3 cases, nicotinamide gel 3 cases
Source text: The composition used is a gel in accordance with that whose composition is given in example 2.

Q: Which “improvement of acne with conventional treatment” value does the source give for `CC[C@H]1OC(=O)[C@H](C)[C@@H](O[C@H]2C[C@@](C)(OC)[C@@H](O)[C@H](C)O2)[C@H](C)[C@@H](O[C@@H]2O[C@H](C)C[C@H](N(C)C)[C@H]2O)[C@](C)(O)C[C@@H](C)C(=O)[C@H](C)[C@@H](O)[C@]1(C)O` [erythromycin] here?
A: The value was “no notable improvement”.

Q: For `O=C(OOC(=O)c1ccccc1)c1ccccc1` [benzoyl peroxide], which “improvement of acne with conventional treatment” value is on record?
A: The value was “no notable improvement”.
